Results published in patent US5432175A, “Pyridine and pyridine N-oxide derivatives of diaryl methyl piperidines or piperazines, and compositions and methods of use thereof” (Schering Corporation, priority 1993, dated 1995).

Test system: PAF-induced bronchospasm
Assay: PAF-induced bronchospasm in guinea pigs (in vivo)
Design: species or system guinea pig (male Hartley)
Conditions: Cavia porcellus, po, read-out: Agonist Bronchospasm (in vivo) PAF % Inhibition
Procedure: (§1) B. In Vivo Studies: Agonist-Induced Responses
(§2) Spasmogen-Induced Bronchospasm in Guinea Pigs
(§3) Male Hartley guinea pigs (450-550 g) were obtained from Charles River Breeding Laboratories. The animals were fasted overnight and the following day were anesthetized with 0.9 ml/kg i.p. of dilaurethane (containing 0.1 g/ml diallylbarbituric acid, 0.4 g/ml ethylurea and 0.4 g/ml urethane). The left jugular vein was cannulated for the administration of compounds. The trachea was cannulated and the animals were ventilated by a rodent respirator at 55 strokes/min. with a stroke volume of 4 ml. A side arm to the tracheal cannula was connected to a pressure transducer to obtain a continuous measure of inflation pressure. Bronchoconstriction was measured as the percent increase in inflation pressure that peaked within 5 min. after challenge with spasmogen. […] Each animal was challenged with only a single spasmogen. The effect of a compound on the bronchospasm is expressed as a percent inhibition of the increase in inflation pressure compared to the increase in a control group. […] The first two compounds in TABLE II are known compounds and are included for comparison purposes.

CCOC(=O)N1CCC(=C2c3ccc(Cl)cc3CCc3cccnc32)CC1 [reference compound] showed an inhibition in vivo at 10 mg/kg of less than 50%.

Same assay, conditions: Cavia porcellus; oral, dose 3 mg/kg; PAF 0.4 μg/kg i.v.; read-out: Agonist Bronchospasm (in vivo) PAF % Inhibition

First: CC(=O)N1CCC(=C2c3ccc(Cl)cc3CCc3cccnc32)CC1 [reference compound]
Second: O=C(c1cc[n+]([O-])cc1)N1CCC(=C(c2ccc(Cl)cc2)c2ccccn2)CC1
The inhibition in vivo at 3 mg/kg of the first is lower: 4% for the first, 100% for the second.

Compared with O=C(c1cc[n+]([O-])cc1)N1CCC(=C(c2ccccc2)c2ccccc2)CC1, O=C(c1cc[n+]([O-])cc1)N1CCN(C(c2ccccc2)c2ccc(Cl)cc2)CC1 (centres unmarked) is higher in inhibition in vivo at 3 mg/kg: 44% for the first, 99% for the second.

Compared with O=C(c1cc[n+]([O-])cc1)N1CCN(C(c2ccc(Cl)cc2)c2nccs2)CC1 (centres unmarked), O=C(c1cc[n+]([O-])cc1)N1CCN(C(c2ccc(Cl)cc2)c2cccs2)CC1 (centres unmarked) is lower in inhibition in vivo at 3 mg/kg: 73% for the first, 22% for the second.

With [O-][n+]1ccc(CN2CCC(=C(c3ccc(Cl)cc3)c3ccccn3)CC2)cc1 the inhibition in vivo at 3 mg/kg was 18%.

Test system: histamine-induced bronchospasm
Assay: Histamine-induced bronchospasm in guinea pigs (in vivo)
Design: species or system guinea pig (male Hartley)
Conditions: oral, dose 1 mg/kg; histamine 10 ug/kg i.v.
Procedure: as §1, §2, §3

With CCOC(=O)N1CCC(=C2c3ccc(Cl)cc3CCc3cccnc32)CC1 [reference compound] the “Agonist Bronchospasm (in vivo) Histamine % Inhibition” value was greater than 50%.

Same assay, conditions: oral, dose 3 mg/kg; histamine 10 ug/kg i.v.

First: CC(=O)N1CCC(=C2c3ccc(Cl)cc3CCc3cccnc32)CC1 [reference compound]
Second: O=C(c1cc[n+]([O-])cc1)N1CCC(=C(c2ccc(Cl)cc2)c2ccccn2)CC1
The “Agonist Bronchospasm (in vivo) Histamine % Inhibition” value of the first is higher: 48% for the first, 0% for the second.

First: O=C(c1cc[n+]([O-])cc1)N1CCC(=C(c2ccccc2)c2ccccc2)CC1
Second: O=C(c1cc[n+]([O-])cc1)N1CCN(C(c2ccccc2)c2ccc(Cl)cc2)CC1 (centres unmarked)
The “Agonist Bronchospasm (in vivo) Histamine % Inhibition” value of the first is lower: 0% for the first, 30% for the second.

In the case of [O-][n+]1ccc(CN2CCC(=C(c3ccc(Cl)cc3)c3ccccn3)CC2)cc1, the “Agonist Bronchospasm (in vivo) Histamine % Inhibition” value is reported as 95%.

Same assay, conditions: oral, dose 10 mg/kg; histamine 10 ug/kg i.v.

With O=C(c1cc[n+]([O-])cc1)N1CCN(C(c2ccc(Cl)cc2)c2nccs2)CC1 (centres unmarked) the “Agonist Bronchospasm (in vivo) Histamine % Inhibition” value was 25%.

Test system: PAF-induced platelet aggregation
Assay: Platelet Aggregation Assay (in vitro PAF antagonism, human platelet-rich plasma)
Format: cell-based
Conditions: 37° C., PAF 1-5×10^-8 M
Procedure: Platelet Aggregation Assay
Platelet-activating factor (PAF) causes aggregation of platelets by a receptor-mediated mechanism. Therefore, PAF-induced platelet aggregation provides a simple and convenient assay to screen compounds for PAF antagonism.
Blood was centrifuged at 110×g for 15 min. and the supernatant platelet-rich plasma (PRP) carefully transferred into a polypropylene tube. Platelet-poor-plasma (PPP) was prepared by centrifuging PRP at 12,000×g for 2 min. PRP was used within 3 hr. of drawing the blood.
PAF was dissolved in chloroform:methanol (1:1, v/v) at a concentration of 2 mg/ml and stored at -70° C. An aliquot of this solution was transferred to a polypropylene tube and dried under a flow of nitrogen gas. […] The solution was sonicated for 5 min. This stock solution was further diluted to appropriate concentrations in Hepes-saline-BSA buffer. Collagen and adenosine diphosphate (ADP) were purchased as solutions. Test compounds were initially dissolved in dimethyl sulfoxide (DMSO) at a concentration of 50 mM and then further diluted in Hepes-saline-BSA buffer to achieve appropriate concentrations.
When an aggregating agent such as PAF is added to PRP, platelets aggregate. An aggregometer quantifies this aggregation by measuring and comparing light (infra-red) transmission through PPP and PRP. Aggregation assays were performed using a dual-channel aggregometer. PRP (0.45 ml) in aggregometer cuvettes was continually stirred (37° C.). Solutions (50 μL) of test compounds or vehicle were added to the PRP and, after incubation for 2 min., 10-15 μl aliquots of PAF solution were added to achieve a final concentration of 1-5×10^-8 M. In different experiments the aggregatory response was kept within a set limit by varying the concentration of PAF. Incubations were continued until the increase in light transmission reached a maximum (usually 2 min.). This increase in light transmission reflecting platelet aggregation is transmitted to a computer. The computer calculates the slope of transmission change, thus providing the rate of aggregation. Values for inhibition were calculated by comparing rates of aggregation obtained in the absence and the presence of the compound. For each experiment, a standard PAF antagonist such as 8-chloro-6,11-dihydro-11 -(1-acetyl-4-piperidylidene)-5H-benzo[5,6]cyclohepta[1,2-b]pyridine was used as a positive control. […]

Going from Cn1ccnc1C(=C1CCN(C(=O)c2cc[n+]([O-])cc2)CC1)c1ccc(Cl)cc1 to O=C(c1cc[n+]([O-])cc1)N1CCC(=C(c2ccc(Cl)cc2)c2nccs2)CC1, the IC50 falls from 2000 nM to 1000 nM (2-fold).

CC(=O)N1CCC(=C2c3ccc(Cl)cc3CCc3cccnc32)CC1 [reference compound] and O=C(c1cc[n+]([O-])cc1)N1CCC(=C(c2ccc(Cl)cc2)c2ccccn2)CC1 are within 1.5-fold of each other in IC50: 610 nM for the first, 500 nM for the second.

Going from O=C(c1cc[n+]([O-])cc1)N1CCC(=C(c2ccccc2)c2ccccc2)CC1 to O=C(c1cc[n+]([O-])cc1)N1CCC(=C(c2ccc(Cl)cc2)c2cccs2)CC1, the IC50 falls from 3000 nM to 500 nM (6-fold). The second is the more potent here.

First: O=C(c1cc[n+]([O-])cc1)N1CCN(C(c2ccccc2)c2ccc(Cl)cc2)CC1 (centres unmarked)
Second: O=C(c1cc[n+]([O-])cc1)N1CCN(C(c2ccc(Cl)cc2)c2cccs2)CC1 (centres unmarked)
The IC50 of the first is 5-fold higher: 1000 nM for the first, 200 nM for the second. The second is the more potent here.

First: O=C(c1cc[n+]([O-])cc1)N1CCN(C(c2ccc(Cl)cc2)c2nccs2)CC1 (centres unmarked)
Second: [O-][n+]1ccc(CN2CCN(C(c3ccc(Cl)cc3)c3nccs3)CC2)cc1 (centres unmarked)
The IC50 of the first is 12-fold lower: 1000 nM for the first, 12000 nM for the second.

First: [O-][n+]1ccc(CN2CCC(=C(c3ccc(Cl)cc3)c3nccs3)CC2)cc1
Second: Cn1ccnc1C(=C1CCN(Cc2cc[n+]([O-])cc2)CC1)c1ccc(Cl)cc1
The IC50 of the first is 1.8-fold higher: 35000 nM for the first, 20000 nM for the second. The second is the more potent here.

[O-][n+]1ccc(CN2CCC(=C(c3ccc(Cl)cc3)c3ccccn3)CC2)cc1 and [O-][n+]1ccc(CN2CCN(C(c3ccc(Cl)cc3)c3cccs3)CC2)cc1 (centres unmarked) are within 1.5-fold of each other in IC50: 12000 nM for the first, 15000 nM for the second.
